Results taken from US20180303812A1, “PHARMACEUTICAL COMPOSITION FOR USE IN TREATING AML AND METHOD OF TREATING AML IN A SUBJECT IN NEED THEREOF” (DAIICHI SANKYO COMPANY, LIMITED, priority 2015, published 2018).

Columns and labels:
AML = AML patients; cited from earlier work
[1] = test system: AML samples (mononuclear cells from peripheral blood or bone marrow of AML patients); test: Ex vivo treatment of primary AML patient samples; live cells by annexin V / propidium iodide binding assays; assay type: cell-based, human
Description: Leukemia samples isolated from peripheral blood or bone marrow of patients with newly diagnosed or relapsed/refractory AML were treated using the test compound as described below.
Heparinized peripheral blood and bone marrow samples containing more than 1.6×10^7 mononuclear cells were obtained from AML patients with newly diagnosed or relapsed/refractory AML, after informed consent according to the University of Texas MD Anderson Cancer Center (MDA, Houston, Tex., USA) guidelines in accordance with the Declaration of Helsinki. In each sample, the blast counts (blast %) was determined from routine morphological differential counts by clinical laboratory technicians, confirmed by hematopathologists at MDA (usually 500 cells were counted). […]
Mononuclear cells were purified by density-gradient centrifugation. The cells were cultured in RPMI 1640 medium containing 10% fetal bovine serum and were treated ex vivo for 48 hours with the test compound (0, 25, 50, 100, 250, 500, or 1000 nM), and live cell numbers were determined by apoptosis analysis using annexin V and propidium iodide (PI, purchased from Sigma-Aldrich) binding assays. Annexin V- and PI-negative cells were counted as live cells. Apoptosis was quantified as the proportion of annexin V-positive cells, and specific apoptosis was calculated by the following formula: % specific apoptosis=(test−control)×100/(100−control). […]

CCOc1cc(C(C)(C)C)ccc1C1=N[C@@](C)(c2ccc(Cl)cc2)[C@@](C)(c2ccc(Cl)cc2)N1C(=O)N1CCN(CCCS(C)(=O)=O)CC1 [RG7112]
clinical response (AML): clinical responses including complete remissions

CC1(C)CCC2(CC1)N[C@@H](C(=O)N[C@@H]1CC[C@@H](C(N)=O)OC1)[C@H](c1ccnc(Cl)c1F)[C@]21C(=O)Nc2cc(Cl)ccc21.Cc1ccc(S(=O)(=O)O)cc1 [Compound 2, (3′R,4′S,5′R)—N-[(3R,6S)-6-carbamoyltetrahydro-2H-pyran-3-yl]-6″-chloro-4′-(2-chloro-3-fluoropyridin-4-yl)-4,4-dimethyl-2″-oxo-1″,2″-dihydrodispiro[cyclohexane-1,2′-pyrrolidine-3′,3″-indole]-5′-carboxamide mono(4-methylbenzenesulfonate) monohydrate]
leukemia cells induce apoptosis ([1]; in other samples): less than 20% | leukemia cells induced apoptosis ([1]; in some of the samples, at a higher concentration): more than 80%
